Measurements reported in patent US20210330611A1, “THERAPY FOR NEUROLOGICAL DISEASES/DISORDERS” (priority 2020, published 2021).
Counter-ions that a name gives are not always drawn. Like-named read-outs stand apart in the source and are kept apart here.

Assays:
[1] = system: fibrin-induced microglia activation; test: Image-based assay of fibrin-induced microglia activation (HTS and dose response); type: cell-based, rat; conditions: for inhibition at 10 µM: Rattus norvegicus, Microglia, read-out: Fibrin % inhibition
primary rat microglia [2] = system: primary rat microglia;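 on Fibrin % cell toxicity: share of dead cells sized under 150 µm2 at 10 µM in fibrin-stimulated microglia HTS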
[3] = system: LPS-induced microglia activation; test: Image-based assay of LPS-induced microglia activation (HTS and dose response); type: cell-based, rat; conditions: for inhibition at 10 µM: Rattus norvegicus, Microglia, 48 h, read-out: LPS % inhibition
[4] = system: fibrin- and LPS-induced microglia activation; test: cells; type: cell-based, rat
primary rat microglia [5] = system: primary rat microglia; remark: listed apart in the source;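 on Fibrin % cell toxicity: share of dead cells sized under 150 µm2 at 10 µM in fibrin-stimulated microglia HTS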
[6] = primary microglia HTS, fibrin stimulation, activation = cell size >800 μm2
[7] = primary microglia HTS, LPS stimulation, activation = cell size >800 μm2
[8] = quadrant by fibrin and LPS inhibition in HTS of 1907 compounds
[9] = primary microglia HTS, fibrin stimulation, increased cell size (>800 μm^2) as marker of activation
[10] = primary microglia HTS, LPS stimulation, increased cell size (>800 μm^2) as marker of activation

SMILES | inhibition at 10 µM [1] [%] | Fibrin % cell toxicity (primary rat microglia [2]; rat) [%] | inhibition at 10 µM [3] [%] | Quadrant (FIG. 5b) [4] | LPS % cell toxicity (primary rat microglia [5]; rat) [%] | Quadrant (FIG. 5b) [4, 8] | inhibition at 10 µM [1, 9] [%] | inhibition at 10 µM [3, 10] [%] | also measured
CC(CCc1ccccc1)NCC(O)c1ccc(O)c(C(N)=O)c1 (stereo not drawn) [Labetalol] | 32 | 1 | 30 | Q4 | 1 | – | – | – | –
CC(O)C(=O)O (stereo not drawn) [Lactic Acid] | 0 | 1 | 14 | Q4 | 1 | – | – | – | –
N#Cc1ccc(C(c2ccc(C#N)cc2)n2cncn2)cc1 [Letrozole] | – | 1 | – | – | 0 | Q4 | – | – | inhibition at 10 µM [1, 6]: 15%; inhibition at 10 µM [3, 7]: 16%
c1ccc([C@H]2CN3CCSC3=N2)cc1 [Levamisole] | -15 | 0 | 12 | Q4 | 0 | – | – | – | –
N[C@@H](Cc1ccc(O)c(O)c1)C(=O)O [Levodopa] | – | 1 | – | – | 0 | Q4 | – | – | inhibition at 10 µM [1, 6]: 17%; inhibition at 10 µM [3, 7]: -5%
CC(C)(C)NC[C@H](O)c1ccc(O)c(CO)c1 [Levosalbutamol] | – | 0 | – | – | 0 | Q4 | – | – | inhibition at 10 µM [1, 6]: -29%; inhibition at 10 µM [3, 7]: 11%
Cl[C@H]1[C@H](Cl)[C@@H](Cl)[C@@H](Cl)[C@H](Cl)[C@H]1Cl [Lindane] | – | 0 | – | – | 0 | Q4 | – | – | inhibition at 10 µM [1, 6]: 42%; inhibition at 10 µM [3, 7]: 11%
CC(=O)NC[C@H]1CN(c2ccc(N3CCOCC3)c(F)c2)C(=O)O1 [Linezolid] | -18 | 1 | 19 | Q4 | 0 | – | – | – | –
[H-].[Li+] [Lithium hydride] | – | – | – | Q4 | – | – | – | – | Fibrin % inhibition [1]: −6%; Fibrin % cell toxicity (primary rat microglia [2]): 1%; LPS % inhibition [3]: 20%; LPS % cell toxicity (primary rat microglia [5]): 0%
O=NN(CCCl)C(=O)NC1CCCCC1 [Lomustine] | – | 1 | – | – | 1 | Q4 | – | – | inhibition at 10 µM [1, 6]: 0%; inhibition at 10 µM [3, 7]: 19%
CN(C)C(=O)C(CCN1CCC(O)(c2ccc(Cl)cc2)CC1)(c1ccccc1)c1ccccc1 [Loperamide] | 12 | 1 | 63 | Q1 | 2 | – | – | – | –
CCCCc1nc(Cl)c(CO)n1Cc1ccc(-c2ccccc2-c2nnn[nH]2)cc1 [Losartan, Losartan Potassium] | – | – | – | – | – | Q4 | – | – | Fibrin % inhibition [1, 9]: −3%; Fibrin % cell toxicity (primary rat microglia [2]): 1%; LPS % inhibition [3, 10]: 19%; LPS % cell toxicity (primary rat microglia [5]): 1%
CNCCCC12CCC(c3ccccc31)c1ccccc12 [Maprotiline hydrochloride, reference compound] | – | 1 | 67 | Q1 | 1 | – | – | – | Fibrin % inhibition ([1]; hydrochloride): 31%; Activity [4]: fib/LPS
Cc1cccc(Nc2ccccc2C(=O)O)c1C [Mefenamic Acid] | – | 1 | – | – | 1 | Q4 | -6 | 3 | –
OC(c1cc(C(F)(F)F)nc2c(C(F)(F)F)cccc12)C1CCCCN1 (stereo not drawn) [Mefloquine] | – | 1 | – | – | 0 | Q4 | -18 | 13 | –
N[C@@H](Cc1ccc(N(CCCl)CCCl)cc1)C(=O)O [Melphalan] | – | 0 | – | – | 0 | Q4 | 28 | 3 | –

SMILES | inhibition at 10 µM [1] [%] | Fibrin % cell toxicity (primary rat microglia [2]; rat) [%] | inhibition at 10 µM [3] [%] | Quadrant (FIG. 5b) [4] | LPS % cell toxicity (primary rat microglia [5]; rat) [%] | Quadrant (FIG. 5b) [4, 8] | inhibition at 10 µM [1, 9] [%] | inhibition at 10 µM [3, 10] [%] | also measured
CC1CCC(C(C)C)C(O)C1 (stereo not drawn) [Menthol] | -20 | 1 | 0 | Q4 | 0 | – | – | – | –
Cc1ccccc1OCC(O)CO (stereo not drawn) [Mephenesin] | – | 0 | – | – | 0 | Q4 | 14 | 13 | –
COc1ccc(CN(CCN(C)C)c2ccccn2)cc1 [Mepyramine] | – | 0 | – | – | 0 | Q4 | -11 | 13 | –
Sc1ncnc2nc[nH]c12 [Mercaptopurine] | – | 0 | – | – | 0 | Q4 | 2 | 9 | –
CN(C)C(=N)N=C(N)N [Metformin] | -15 | 0 | 0 | Q4 | 0 | – | – | – | –
Cn1cc[nH]c1=S [Methimazole] | -29 | 0 | 12 | Q4 | 0 | – | – | – | –
COC(C)(C)CCC[C@H](C)C/C=C/C(C)=C/C(=O)OC(C)C [Methoprene (s)] | – | – | – | – | – | Q4 | – | – | Fibrin % inhibition [1, 9]: −9%; Fibrin % cell toxicity (primary rat microglia [2]): 1%; LPS % inhibition [3, 10]: 12%; LPS % cell toxicity (primary rat microglia [5]): 0%
CN(Cc1cnc2nc(N)nc(N)c2n1)c1ccc(C(=O)N[C@@H](CCC(=O)O)C(=O)O)cc1 [Methotrexate] | – | 1 | – | – | 0 | Q4 | -32 | -4 | –
COc1c2occc2cc2ccc(=O)oc12 [Methoxsalen] | – | 0 | – | – | 0 | Q4 | -31 | 14 | –
Cc1cc(C(C)(C)CC(C)(C)C)ccc1OCCOCC[N+](C)(C)Cc1ccccc1.[Cl-] [Methylbenzethonium Chloride] | – | – | – | – | – | – | – | – | Fibrin % inhibition ([1]; primary microglia HTS, fibrin stimulation, compounds at 10 μM): 105%; Fibrin % cell toxicity (primary rat microglia [2]): 17%; LPS % inhibition ([3]; primary microglia HTS, LPS stimulation, compounds at 10 μM): 108%; Quadrant (FIG. 5b) ([4]; quadrant by fibrin and LPS inhibition, HTS at 10 μM): Q2; LPS % cell toxicity (primary rat microglia [5]): 10%
CN(C)c1ccc2nc3ccc(=[N+](C)C)cc-3sc2c1 [Methylene Blue] | 25 | 1 | 73 | Q1 | 1 | – | – | – | –
CC[C@@H](CO)NC(=O)[C@@H]1C=C2c3cccc4[nH]cc(c34)C[C@H]2N(C)C1 [Methylergometrine] | – | 0 | – | – | 0 | Q4 | -43 | 7 | –
Cc1ncc([N+](=O)[O-])n1CCO [Metronidazole] | – | 0 | – | – | 1 | Q4 | -12 | 15 | –
CC(C)(C(=O)c1cccnc1)c1cccnc1 [Metyrapone] | – | 1 | – | – | 0 | Q4 | -60 | 39 | –
Cc1cccc(C)c1OCC(C)N (stereo not drawn) [Mexiletine] | 2 | 1 | 13 | Q4 | 0 | – | – | – | –
